Reference: ChEMBL document CHEMBL1137253, “Novel C-3 N-urea, amide, and carbamate dihydroindazolo[5,4-a]pyrrolo[3,4-c]carbazole analogs as potent TIE-2 and VEGF-R2 dual inhibitors” (Bioorg Med Chem Lett, 2006)

Key:
Angiopoietin-1 receptor = Angiopoietin-1 receptor (Homo sapiens, UniProt Q02763)
[1] = Cmax in rat at 5 mg/kg, po; type: ADME, organism-based; design: dose 5 mg/kg, route oral; conditions: in vivo
[2] = Tmax in rat at 5 mg/kg, po; type: ADME, organism-based; design: dose 5 mg/kg, route oral; conditions: in vivo
Rattus norvegicus = assay: Toxicity assessed by gastrointestinal hemorrhage in rat at 10 mg/kg; type: organism-based; design: dose 10 mg/kg; conditions: in vivo
[3] = AUC (0-infinity) in rat at 5 mg/kg, po; type: ADME, organism-based; design: time infinity, dose 5 mg/kg, route oral; conditions: plasma
Mus musculus = species on record: Mus musculus; assay: Antitumor activity against murine SVR cells in nude mice; type: functional
[4] = AUC (0-t) in rat at 1 mg/kg, iv; type: ADME, organism-based; design: dose 1 mg/kg, route intravenous; conditions: plasma
[5] = Volume of distribution in rat at 1 mg/kg, iv; type: ADME, organism-based; design: dose 1 mg/kg, route intravenous; conditions: in vivo, read-out: Vdss
[6] = AUC (0-infinity) in rat at 1 mg/kg, iv; type: ADME, organism-based; design: time infinity, dose 1 mg/kg, route intravenous; conditions: plasma
[7] = AUC (0-t) in rat at 5 mg/kg, po; type: ADME, organism-based; design: dose 5 mg/kg, route oral; conditions: plasma
[8] = Clearance in rat at 1 mg/kg, iv; type: ADME, organism-based; design: dose 1 mg/kg, route intravenous; conditions: in vivo
[9] = Half life in rat at 1 mg/kg, iv; type: ADME, organism-based; design: dose 1 mg/kg, route intravenous; conditions: in vivo

Angiopoietin-1 receptor, sequence (Q02763 whole entry): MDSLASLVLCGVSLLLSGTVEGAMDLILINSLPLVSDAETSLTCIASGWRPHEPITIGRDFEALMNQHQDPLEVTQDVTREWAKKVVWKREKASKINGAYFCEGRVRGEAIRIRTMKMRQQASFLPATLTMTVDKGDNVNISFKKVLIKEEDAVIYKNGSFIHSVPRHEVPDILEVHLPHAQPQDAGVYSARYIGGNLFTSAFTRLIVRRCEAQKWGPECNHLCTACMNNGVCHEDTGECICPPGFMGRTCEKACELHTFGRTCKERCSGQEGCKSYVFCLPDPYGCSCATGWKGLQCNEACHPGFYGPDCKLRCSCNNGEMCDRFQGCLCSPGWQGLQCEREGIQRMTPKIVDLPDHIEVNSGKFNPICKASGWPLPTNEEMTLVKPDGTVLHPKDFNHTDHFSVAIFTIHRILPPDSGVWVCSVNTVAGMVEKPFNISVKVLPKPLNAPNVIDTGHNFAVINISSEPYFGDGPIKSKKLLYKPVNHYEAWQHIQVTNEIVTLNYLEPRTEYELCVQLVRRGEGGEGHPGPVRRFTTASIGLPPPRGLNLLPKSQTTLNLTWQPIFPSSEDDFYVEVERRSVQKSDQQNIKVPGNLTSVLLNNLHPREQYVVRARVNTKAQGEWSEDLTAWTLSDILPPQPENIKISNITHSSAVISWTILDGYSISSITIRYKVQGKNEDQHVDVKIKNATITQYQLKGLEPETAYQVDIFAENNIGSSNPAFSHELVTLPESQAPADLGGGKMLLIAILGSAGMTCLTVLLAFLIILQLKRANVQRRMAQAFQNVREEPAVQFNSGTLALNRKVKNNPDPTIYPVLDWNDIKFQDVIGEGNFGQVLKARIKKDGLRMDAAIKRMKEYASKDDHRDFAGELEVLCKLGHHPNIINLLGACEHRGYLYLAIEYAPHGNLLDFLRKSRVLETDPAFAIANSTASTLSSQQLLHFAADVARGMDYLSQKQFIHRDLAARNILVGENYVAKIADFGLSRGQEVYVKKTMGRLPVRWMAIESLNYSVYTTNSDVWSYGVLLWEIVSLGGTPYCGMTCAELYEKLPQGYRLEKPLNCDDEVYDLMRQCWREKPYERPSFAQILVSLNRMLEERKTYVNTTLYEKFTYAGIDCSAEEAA

Compound | IC50 (Angiopoietin-1 receptor) [nM] | also measured
CCCn1c2ccc(NC(=O)Nc3ccccc3F)cc2c2c3c(c4c(c21)CCc1nn(C)cc1-4)C(=O)NC3 | 2 | 
CCCn1c2ccc(NC(=O)Nc3ccc(SC)cc3)cc2c2c3c(c4c(c21)CCc1nn(C)cc1-4)C(=O)NC3 | 3 | 
CCCn1c2ccc(NC(=O)Oc3ccc(OC)cc3)cc2c2c3c(c4c(c21)CCc1nn(C)cc1-4)C(=O)NC3 | 5 | 
CCCn1c2ccc(NC(=O)c3cccs3)cc2c2c3c(c4c(c21)CCc1nn(C)cc1-4)C(=O)NC3 | 12 | 
CCn1c2ccc(NC(=O)Nc3ccc(OC)cc3)cc2c2c3c(c4c(c21)CCc1nn(C)cc1-4)C(=O)NC3 | 4 | 
CCCn1c2ccc(NC(=O)Oc3ccc(F)cc3)cc2c2c3c(c4c(c21)CCc1nn(C)cc1-4)C(=O)NC3 | 11 | 
COc1ccccc1NC(=O)Nc1ccc2c(c1)c1c3c(c4c(c1n2CC(C)C)CCc1nn(C)cc1-4)C(=O)NC3 | 8 | 
CC(C)Cn1c2ccc(N)cc2c2c3c(c4c(c21)CCc1nn(C)cc1-4)C(=O)NC3 | 48 | 
CCCn1c2ccc(NC(=O)Nc3cc(C(F)(F)F)ccc3F)cc2c2c3c(c4c(c21)CCc1nn(C)cc1-4)C(=O)NC3 | 4 | 
COc1ccc(NC(=O)Nc2ccc3c(c2)c2c4c(c5c(c2n3CC(C)C)CCc2nn(C)cc2-5)C(=O)NC4)cc1 | 3 | 
CCCOC(=O)Nc1ccc2c(c1)c1c3c(c4c(c1n2CCC)CCc1nn(C)cc1-4)C(=O)NC3 | 7 | 
CCCn1c2ccc(NC(=O)OC(C)C)cc2c2c3c(c4c(c21)CCc1nn(C)cc1-4)C(=O)NC3 | 11 | Cmax [1]: 552 ng/mL; Tmax [2]: 4 h; Activity (Rattus norvegicus): Toxic; AUC(0-inf) [3]: 3770 ng·h/mL; Activity (Mus musculus): 62%; AUC(0-t) [4]: 1420 ng·h/mL; Vd [5]: 2.34 L/kg; AUC(0-inf) [6]: 1710 ng·h/mL; AUC(0-t) [7]: 2420 ng·h/mL; clearance [8]: 10.5 mL/min/kg; half-life [9]: 2.84 h
CCCn1c2ccc(NC(=O)Nc3ccc(Cl)cc3)cc2c2c3c(c4c(c21)CCc1nn(C)cc1-4)C(=O)NC3 | 6 | 
COc1cccc(NC(=O)Nc2ccc3c(c2)c2c4c(c5c(c2n3CC(C)C)CCc2nn(C)cc2-5)C(=O)NC4)c1 | 4 | 
CCCn1c2ccc(NC(=O)Nc3ccccc3)cc2c2c3c(c4c(c21)CCc1nn(C)cc1-4)C(=O)NC3 | 5 | 
CCCn1c2ccc(NC(=O)OCC)cc2c2c3c(c4c(c21)CCc1nn(C)cc1-4)C(=O)NC3 | 18 | 

Compound | IC50 (Angiopoietin-1 receptor) [nM] | also measured
CCCn1c2ccc(NC(=O)Nc3cccs3)cc2c2c3c(c4c(c21)CCc1nn(C)cc1-4)C(=O)NC3 | 19 | 
CCCn1c2ccc(NC(=O)Nc3ccc(N(C)C)cc3)cc2c2c3c(c4c(c21)CCc1nn(C)cc1-4)C(=O)NC3 | 6 | 
CCCn1c2ccc(NC(=O)Nc3ccccc3Br)cc2c2c3c(c4c(c21)CCc1nn(C)cc1-4)C(=O)NC3 | 4 | 
CCCn1c2ccc(NC(=O)Nc3ccc(C)cc3)cc2c2c3c(c4c(c21)CC(C=N)=CC4)C(=O)NC3 | 3 | 
CCCn1c2ccc(NC(=O)Nc3cccc(F)c3)cc2c2c3c(c4c(c21)CCc1nn(C)cc1-4)C(=O)NC3 | 2 | 
CCCn1c2ccc(NC(=O)Nc3ccccc3Cl)cc2c2c3c(c4c(c21)CCc1nn(C)cc1-4)C(=O)NC3 | 3 | 
CCCn1c2ccc(NC(=O)Nc3ccc(F)cc3)cc2c2c3c(c4c(c21)CCc1nn(C)cc1-4)C(=O)NC3 | 2 | 
CCCCn1c2ccc(NC(=O)Nc3ccc(OC)cc3)cc2c2c3c(c4c(c21)CCc1nn(C)cc1-4)C(=O)NC3 | 7 | 
CCCn1c2ccc(NC(=O)N(C)c3ccccc3)cc2c2c3c(c4c(c21)CCc1nn(C)cc1-4)C(=O)NC3 | 2 | 
CCCn1c2ccc(NC(=O)Nc3ccc(OC)cc3)cc2c2c3c(c4c(c21)CCc1nn(C)cc1-4)C(=O)NC3 | 2 | 
CC(C)Cn1c2ccc(NC(=O)c3ccco3)cc2c2c3c(c4c(c21)CCc1nn(C)cc1-4)C(=O)NC3 | 20 | 
CCCCn1c2ccc(N)cc2c2c3c(c4c(c21)CCc1nn(C)cc1-4)C(=O)NC3 | 230 | 
CCCn1c2ccc(NC(=O)Nc3cc(C)ccc3F)cc2c2c3c(c4c(c21)CCc1nn(C)cc1-4)C(=O)NC3 | 1 | 
CCCn1c2ccc(NC(=O)c3ccco3)cc2c2c3c(c4c(c21)CCc1nn(C)cc1-4)C(=O)NC3 | 29 | 
CCCn1c2ccc(N)cc2c2c3c(c4c(c21)CCc1nn(C)cc1-4)C(=O)NC3 | 36 | 
CC(C)Cn1c2ccc(NC(=O)c3cccs3)cc2c2c3c(c4c(c21)CCc1nn(C)cc1-4)C(=O)NC3 | 10 | 
